Source: US20120184590A1, “FORMULATIONS OF INDOLE-3-CARBINOL DERIVED ANTITUMOR AGENTS WITH INCREASED ORAL BIOAVAILABILITY” (UNIVERSITY OF KANSAS, priority 2009, published 2012)
Values after ≈ are worked out from the molar mass of the structure shown.

Assay: Solubility of SR13668 in various solvents
Format: physicochemical
Details: for solubility: thermodynamic from solid
Source text: The other three systems are similar to the Solutol solutions, but the Solutol is the best candidate having the lowest freezing point (see Table 10) and a high SR13668 solubility (see Table 11). […] Vit E TPGS is water soluble natural-source vitamin E d-alpha tocopheryl polyethyleneglycol succinate, 387 IU/g. Myrj is Polyethylene Glycol (50) Monostearate.

SMILES: CCOC(=O)c1ccc2[nH]c3c(OC)c4[nH]c5ccc(C(=O)OCC)cc5c4cc3c2c1 [SR13668, 2,10-dicarbethoxy-6-methoxy-5,7-dihydro-indolo-(2,3-b)carbazole]
- aqueous solubility: extremely low
- solubility (65 °C, aqueous with cosolvent or surfactant or cyclodextrin, Solutol, 65-70 ° C., HPLC): 7000 µg/mL (≈ 16300 µM)
- solubility (65 °C, aqueous with cosolvent or surfactant or cyclodextrin, Vitamin E TPGS, 65-70 ° C., UV): 5500 µg/mL (≈ 12800 µM)
- solubility (65 °C, organic solvent or mixture, Gelucire 44/14, 65-70 ° C., UV): 4260 µg/mL (≈ 9900 µM)
- solubility (65 °C, organic solvent or mixture, Gelucire 50/13, 65-70 ° C., UV): 4150 µg/mL (≈ 9640 µM)
- solubility (65 °C, organic solvent or mixture, Myrj 52, 65-70 ° C., UV): 6700 µg/mL (≈ 15600 µM)
- solubility (65 °C, organic solvent or mixture, Myrj 53, 65-70 ° C., UV): 6800 µg/mL (≈ 15800 µM)
- solubility (65 °C, organic solvent or mixture, PEG-400, 65-70 ° C., UV): 9000 µg/mL (≈ 20900 µM)
- solubility (65 °C, organic solvent or mixture, PEG-400 New, 65-70 ° C., UV): 7600 µg/mL (≈ 17700 µM)
- solubility (65 °C, organic solvent or mixture, PEG-1000, 65-70 ° C., UV): 8150 µg/mL (≈ 18900 µM)
- solubility (65 °C, organic solvent or mixture, PEG-2000, 65-70 ° C., UV): 8800 µg/mL (≈ 20400 µM)
- solubility (fassgf or other biorelevant, Simulated Intestinal Fluid, RT, HPLC): 0.0075 µg/mL (≈ 0.0174 µM)
- solubility (oil or lipid, Corn Oil, RT, HPLC): 108 µg/mL (≈ 251 µM)
- solubility (oil or lipid, Safflower Oil, RT, HPLC): 77 µg/mL (≈ 179 µM)
- solubility (oil or lipid, Sesame Oil, RT, HPLC): 47 µg/mL (≈ 109 µM)
- solubility (oil or lipid, Soybean Oil, RT, HPLC): 55 µg/mL (≈ 128 µM)
- solubility (oil or lipid, Sunflower Oil, RT, HPLC): 66 µg/mL (≈ 153 µM)
- solubility (organic solvent or mixture, 1-octanol, RT, HPLC): 123 µg/mL (≈ 286 µM)
- solubility (organic solvent or mixture, Absolute Ethanol, RT, HPLC): 75 µg/mL (≈ 174 µM)
- solubility (organic solvent or mixture, Acetone, RT, HPLC): 950 µg/mL (≈ 2210 µM)
- solubility (organic solvent or mixture, Acetonitrile, RT, HPLC): 84.9 µg/mL (≈ 197 µM)
- solubility (organic solvent or mixture, Chemophore EL, RT, HPLC): 264 µg/mL (≈ 613 µM)
- solubility (organic solvent or mixture, DMSO, RT, UV): 106000 µg/mL (≈ 246000 µM)
- solubility (organic solvent or mixture, Ethanol, RT, UV): 148 µg/mL (≈ 344 µM)
- solubility (organic solvent or mixture, Ethyl Acetate, RT, HPLC): 230 µg/mL (≈ 534 µM)
- solubility (organic solvent or mixture, Glycerin, RT, HPLC): 47 µg/mL (≈ 109 µM)
- solubility (organic solvent or mixture, Labrasol, RT, UV): 380 µg/mL (≈ 883 µM)
- solubility (organic solvent or mixture, Methanol, RT, UV): 86.3 µg/mL (≈ 200 µM)
- solubility (organic solvent or mixture, Methylene Chloride, RT, HPLC): 62 µg/mL (≈ 144 µM)
- solubility (organic solvent or mixture, PEG-400, RT, UV): 880 µg/mL (≈ 2040 µM)
- solubility (organic solvent or mixture, PEG-400 New, RT, UV): 1370 µg/mL (≈ 3180 µM)
- solubility (organic solvent or mixture, Pluronic F-127, 120 ° C., HPLC): 9480 µg/mL (≈ 22000 µM)
- solubility (organic solvent or mixture, Propylene Glycol, RT, HPLC): 84 µg/mL (≈ 195 µM)
- solubility (Simulated Gastric Fluid, RT, HPLC): 0.014 µg/mL (≈ 0.0325 µM)
- solubility (Water, RT, HPLC): 0.01 µg/mL (≈ 0.0232 µM)
